According to patent US11273170B2, “Methods of treating cancer” (Ascend Biopharmaceuticals Ltd, priority 2016, dated 2022):
“Also recorded” adds a separate entry of the source.

How the values were obtained:
Assay type in all cases: cell-based
[1] = test system: HeLa-RIP3^+ cells; experiment: Induction of cell death by TNF alpha in the presence of cycloheximide and pan caspase inhibitor zVAD, trypan blue exclusion; conditions: TNF alpha 50 ng/ml in the presence of cycloheximide (250 ng/ml) plus zVAD (50 μM); relative to untreated cells
Method: HeLa-RIP3 cells (250,000/well) were plated in six-well plates 24 hours prior to treatment with TNF alpha and cycloheximide (TCZ treatment). Cells were pre-treated with CHX (250 ng/ml) and the pan caspase inhibitor zVAD (50 μM) one hour before TNF alpha (50 ng/ml) treatment. Cell viability was determined after 12-15 hours by trypan blue exclusion analysis.

[2] = test system: HeLa (RIP3^−) cells; experiment: Induction of cell death by TNF alpha, trypan blue exclusion; conditions: TNF alpha 50 ng/ml; under any condition; 12-15 hours
[3] = test system: HeLa-RIP3^− or HeLa-RIP3^+ cells; experiment: Dose response for chemotherapeutic agents, cell viability by trypan blue exclusion; conditions: 48 hour exposure; for EC50: read-out: ED50 at 48 hours (cell death)
Method: HeLa-RIP3^− or HeLa-RIP3^+ cells (250,000/well) were seeded in six-well plates in complete DMEM medium, and after 24 hours, cells were treated with multiple doses of Fluorouracil. Cell viability was determined 48 hours post treatment via trypan blue exclusion analysis.
HeLa-RIP3^− or HeLa-RIP3^+ cells (250,000/well) were seeded in six-well plates in complete DMEM medium, and after 24 hours, cells were treated with multiple doses of the Trabectedin, Birinapant, or Cisplatin. Cell viability was determined 48 hours post treatment via trypan blue exclusion analysis.

[4] = test system: HeLa (RIP3^+/necroptosis-competent) cells; experiment: Cell death in the presence of inhibitors of apoptosis and necroptosis; conditions: for cell death: no inhibitor, Trabectedin 2.5 nM (alone or plus AdCMV-NULL); for cell death in the presence of zVAD: pan caspase inhibitor zVAD 50 μM
Method: In order to understand which of several possible cell death pathways are activated by Fluorouracil or ASN-002 treatment alone and in combination, experiments were carried out with these agents in the presence of inhibitors of apoptosis and/or necroptosis in HeLa (RIP3^+/necroptosis-competent) cells.
(§1) In order to understand which of several possible cell death pathways are activated by Trabectedin treatment alone and in combination with IFN gamma (virus expressed or exogenously added), experiments were carried out with these agents, alone or in combination, in the presence of inhibitors of apoptosis and/or necroptosis inhibitors in both HeLa (RIP3^+/necroptosis-competent) cells and HeLa (RIP3^−/necroptosis-deficient) cells.

[5] = test system: RIP3^− (necroptosis-deficient) HeLa cells; experiment: Cell death in the presence of a pan caspase inhibitor of apoptosis; conditions: for cell death: no inhibitor, Trabectedin alone or plus AdCMV-NULL
Method: In follow-up experiments, RIP3^− (necroptosis-deficient) HeLa cells were subjected to the same treatments as described above.
as §1

[6] = test system: HeLa-RIP3^− cells; conditions: Birinapant 5 μM or 30 μM, 48 hours
Method: (§2) HeLa-RIP3^− cells (250,000/well) cells were plated in six-well plates 24 hours prior to infection. ASN-002 infections were performed in serum-free medium at multiplicities of infection (MOI) of 10. Two doses of Fluorouracil were co-administered with viruses, and cell death kinetics was analyzed over the period of 3 days.
as §2, with “chemotherapeutic agents” for “Fluorouracil”

[7] = Fluorouracil 10 μM, Trabectedin 2.5 nM

Molecule | EC50 [3] [µM] | cell death ([4]; Fluorouracil 10 μM) | cell death in the presence of zVAD [4, 7] | cell death [5] [%] | cell death in the presence of zVAD relative to treatment without inhibitor [5] | further results
TNF alpha |  |  |  |  |  | cell death [1]: about 70%; induction of cell death [2]: failed to induce cell death
COc1cc2c(cc1O)CCN[C@]21CS[C@@H]2c3c(OC(C)=O)c(C)c4c(c3[C@H](COC1=O)N1[C@@H]2[C@H]2c3c(cc(C)c(OC)c3O)C[C@@H]([C@@H]1O)N2C)OCO4 [Trabectedin] | ~0.01 | approximately 35% | about 95% | 33 |  | cell death in the presence of NSA relative to treatment without inhibitor ([4]; NSA): slightly lower; cell death in the presence of both zVAD and NSA ([4]; zVAD plus NSA, Fluorouracil 10 μM, Trabectedin 2.5 nM): about 60%; cell death in the presence of zVAD ([5]; pan caspase inhibitor zVAD): 87%
N.N.[Cl][Pt][Cl] [Cisplatin] |  |  |  |  |  | ED50 at 48 hours (cell death) [3]: ~10 mg/L
CC[C@H](NC(=O)[C@H](C)NC)C(=O)N1C[C@@H](O)C[C@H]1Cc1c(-c2[nH]c3cc(F)ccc3c2C[C@@H]2C[C@H](O)CN2C(=O)[C@H](CC)NC(=O)[C@H](C)NC)[nH]c2cc(F)ccc12 [Birinapant] | ~30 |  |  |  |  | cell death in combination with control adenovirus (Ad-CMV-NULL) relative to agent alone [6]: same level of cell death as Birinapant alone; also recorded: indistinguishable from that induced by Birinapant alone
O=c1[nH]cc(F)c(=O)[nH]1 [Fluorouracil] | ~50 | approximately 35% | about 80% |  | slightly lower | cell death in the presence of Necrosulfonamide (NSA) ([4]; necroptosis inhibitor NSA 1 μM, Fluorouracil 10 μM): 45%
purified IFN gamma: purified interferon gamma, cytokine (protein, UniProt P01579 24-161, looked up) Interferon gamma: QDPYVKEAENLKKYFNAGHSDVADNGTLFLGILKNWKEESDRKIMQSQIVSFYFKLFKNFKDDQSIQKSVETIKEDMNVKFFNSNKKKRDDFEKLTNYSVTDLNVQRKAIHELIQVMAELSPAAKTGKRKRSQMLFRG |  | ~30% |  | ~30 | marked, though not complete, rescue of cell death | cell death in the presence of zVAD relative to treatment without inhibitor ([5]; listed as IFN gamma): significantly reduced cell death
